pIC50: −log10 of the molar value.
What follows are compounds tested against T1, human CRHR2-alpha (Homo sapiens, UniProt Q13324) (assay: cAMP functional assay for human CRHR2 (LANCE Ultra cAMP, TR-FRET)). Details: CHO-K1 cells expressing human CRHR2-alpha, agonist human urocortin2 at EC80, cAMP; read-out: IC50 against CRHR2.
T1 sequence (Q13324 1-411): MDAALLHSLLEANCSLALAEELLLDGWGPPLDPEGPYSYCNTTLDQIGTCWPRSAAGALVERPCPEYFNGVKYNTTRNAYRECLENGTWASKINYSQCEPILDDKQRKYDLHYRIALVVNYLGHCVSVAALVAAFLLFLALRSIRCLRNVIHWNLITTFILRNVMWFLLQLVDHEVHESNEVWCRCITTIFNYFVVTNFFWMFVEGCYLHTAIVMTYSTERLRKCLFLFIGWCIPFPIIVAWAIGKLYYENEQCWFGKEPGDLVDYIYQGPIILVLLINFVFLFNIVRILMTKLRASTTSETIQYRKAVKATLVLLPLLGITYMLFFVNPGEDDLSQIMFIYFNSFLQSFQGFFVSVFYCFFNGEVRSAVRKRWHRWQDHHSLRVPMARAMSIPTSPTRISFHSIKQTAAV
Format: cell-based
Outline: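 IC50 values derive from percent inhibition of EC80 agonist-stimulated cAMP in CHO-K1 transfectants, with 0.5 mM IBMX present; the CRHR2 line was stimulated by human urocortin2 and the CRHR1 line by CRF.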

pIC50, > 6.52:
CONC(=O)c1ccc(-n2c(=O)n(C[C@H]3CC[C@H](NC(=O)c4cc(Cl)cnc4C(F)(F)F)CC3)c3ccccc32)cn1 [Example 431, 5-(3-(((1r,4r)-4-(5-chloro-2-(trifluoromethyl)nicotinamido)cyclohexyl)methyl)-2-oxo-2,3-dihydro-1H-benzo[d]imidazol-1-yl)-N-methoxypicolinamide]
COc1ccc(-n2c(=O)n(C[C@H]3CC[C@H](NC(=O)c4cc(Cl)cnc4Cl)CC3)c3ccccc32)cn1 [Example 237, 2,5-dichloro-N-((1r,4r)-4-((3-(6-methoxypyridin-3-yl)-2-oxo-2,3-dihydro-1H-benzo[d]imidazol-1-yl)methyl)cyclo-hexyl)nicotinamide]
Cc1nc2cc(-n3c(=O)n(C[C@H]4CC[C@H](NC(=O)c5cc(Cl)cnc5C)CC4)c4ccccc43)ccc2s1 [Example 645, 5-chloro-2-methyl-N-((1r,4r)-4-((3-(2-methylbenzo[d]thiazol-5-yl)-2-oxo-2,3-dihydro-1H-benzo[d]imidazol-1-yl)methyl)cyclohexyl) nicotinamide]
Cc1ncc(Cl)cc1C(=O)N[C@H]1CC[C@H](Cn2c(=O)n(-c3ccc(N4CC(F)C4)nc3)c3ccccc32)CC1 [Example 145, 5-chloro-N-((1r,4r)-4-((3-(6-(3-fluoroazetidin-1-yl)pyridin-3-yl)-2-oxo-2,3-dihydro-1H-benzo[d]imidazol-1-yl)methyl)cyclo-hexyl)-2-methylnicotinamide]
Cc1cc(OCCO)ncc1-n1c(=O)n(C[C@H]2CC[C@H](NC(=O)c3cc(Cl)cnc3C(F)(F)F)CC2)c2ccccc21 [Example 357, 5-chloro-N-((1r,4r)-4-((3-(6-(2-hydroxyethoxy)-4-methylpyridin-3-yl)-2-oxo-2,3-dihydro-1H-benzo[d]imidazol-1-yl)methyl)cyclohexyl)-2-(trifluoromethyl)nicotinamide]
Cc1ncc(Cl)cc1C(=O)N[C@H]1CC[C@H](Cn2c(=O)n(-c3cnc4c(c3)OCC(=O)N4)c3ccccc32)CC1 [Example 224, 5-chloro-2-methyl-N-((1r,4r)-4-((2-oxo-3-(3-oxo-3,4-dihydro-2H-pyrido[3,2-b][1,4]oxazin-7-yl)-2,3-dihydro-1H-benzo[d]imidazol-1-yl)methyl)cyclohexyl)nicotinamide]
COCCn1nnc2cc(-n3c(=O)n(C[C@H]4CC[C@H](NC(=O)c5cc(Cl)cnc5C)CC4)c4ccccc43)ccc21 [Example 294, 5-chloro-N-((1r,4r)-4-((3-(1-(2-methoxyethyl)-1H-benzo[d][1,2,3]triazol-5-yl)-2-oxo-2,3-dihydro-1H-benzo[d]imidazol-1-yl)methyl)cyclohexyl)-2-methylnicotinamide]
O=C(N[C@H]1CC[C@H](Cn2c(=O)n(-c3ccc(N4CCCC4=O)cn3)c3ccccc32)CC1)c1cc(Cl)cnc1C(F)F [Example 767, 5-chloro-2-(difluoromethyl)-N-((1r,4r)-4-((2-oxo-3-(5-(2-oxopyrrolidin-1-yl)pyridin-2-yl)-2,3-dihydro-1H-benzo [d]imidazol-1-yl)methyl)cyclohexyl)nicotinamide]
Cc1ncc(Cl)cc1C(=O)N[C@H]1CC[C@H](Cn2c(=O)n(-c3ccc4c(=O)[nH]cnc4c3)c3ccccc32)CC1 [Example 305, 5-chloro-2-methyl-N-((1r,4r)-4-((2-oxo-3-(4-oxo-3,4-dihydroquinazolin-7-yl)-2,3-dihydro-1H-benzol[d]imidazol-1-yl)methyl)cyclohexyl)nicotinamide]
Cc1ncc(Cl)cc1C(=O)N[C@H]1CC[C@H](Cn2c(=O)n(-c3ccc(C(=O)NC4CC4)nc3)c3ccccc32)CC1 [Example 151, 5-(3-(((1r,4r)-4-(5-chloro-2-methylnicotinamido)cyclo-hexyl)methyl)-2-oxo-2,3-dihydro-1H-benzo[d]imidazol-1-yl)-N-cyclopropyl-picolinamide]
COc1ccc(-n2c(=O)n(C[C@H]3CC[C@H](NC(=O)c4cc(Cl)cnc4C)CC3)c3ccccc32)c(C#N)c1 [Example 231, 5-chloro-N-((1r,4r)-4-((3-(2-cyano-4-methoxyphenyl)-2-oxo-2,3-dihydro-1H-benzo[d]imidazol-1-yl)methyl)cyclo-hexyl)-2-methylnicotinamide]
Cc1ncc(Cl)cc1C(=O)N[C@H]1CC[C@H](Cn2c(=O)n(-c3ccc(N4CCN(C)CC4)nc3)c3ccccc32)CC1 [Example 55, 5-chloro-2-methyl-N-((1r,4r)-4-((3-(6-(4-methylpiperazin-1-yl)pyridin-3-yl)-2-oxo-2,3-dihydro-1H-benzo[d]imidazol-1-yl)methyl)cyclohexyl)nicotinamide]
CNC(=O)c1ccc(-n2c(=O)n(C[C@H]3CC[C@H](NC(=O)c4cc(Cl)cnc4CCOC)CC3)c3ccccc32)cn1 [Example 321, 5-(3-(((1r,4r)-4-(5-chloro-2-(2-methoxyethyl)nico-tinamido)cyclohexyl)methyl)-2-oxo-2,3-dihydro-1H-benzo [d]imidazol-1-yl)-N-methylpicolinamide]
Cc1ncc(Cl)cc1C(=O)N[C@H]1CC[C@H](Cn2c(=O)n(-c3cnc4c(cnn4C)c3)c3ccccc32)CC1 [Example 163, 5-chloro-2-methyl-N-((1r,4r)-4-((3-(1-methyl-1H-pyrazolo [3,4-b]pyridin-5-yl)-2-oxo-2,3-dihydro-1H-benzo[d]imidazol-1-yl)methyl)cyclo-hexyl)nicotinamide]
Cc1ncc(Cl)cc1C(=O)N[C@H]1CC[C@H](Cn2c(=O)n(-c3ccc4c(c3)nnn4C)c3ccccc32)CC1 [Example 255, 5-chloro-2-methyl-N-((1r,4r)-4-((3-(1-methyl-1H-benzo[d] [1,2,3]triazol-5-yl)-2-oxo-2,3-dihydro-1H-benzo[d]imidazol-1-yl)methyl)cyclohexyl) nicotinamide]
CNc1cncc(-n2c(=O)n(C[C@H]3CC[C@H](NC(=O)c4cc(Cl)cnc4C)CC3)c3ccccc32)c1 [Example 487, 5-chloro-2-methyl-N-((1r,4r)-4-((3-(5-(methylamino)pyridin-3-yl)-2-oxo-2,3-dihydro-1H-benzo[d]imidazol-1-yl)methyl)cyclohexyl)nicotinamide]
O=C(N[C@H]1CC[C@H](Cn2c(=O)n(-c3ccnc(N4CCOCC4)c3)c3ccccc32)CC1)c1cc(Cl)cnc1C(F)F [Example 686, 5-chloro-2-(difluoromethyl)-N-((1r,4r)-4-((3-(2-morpho-linopyridin-4-yl)-2-oxo-2,3-dihydro-1H-benzo[d]imidazol-1-yl)methyl)cyclohexyl) nicotinamide]
CCC(=O)Nc1cc(C)c(-n2c(=O)n(C[C@H]3CC[C@H](NC(=O)c4cc(Cl)cnc4C(F)F)CC3)c3ccccc32)cn1 [Example 560, 5-chloro-2-(difluoromethyl)-N-((1r,4r)-4-((3-(4-methyl-6-propionamidopyridin-3-yl)-2-oxo-2,3-dihydro-1H-benzo [d]imidazol-1-yl)methyl)cyclo-hexyl)nicotinamide]
CCn1nc2ncc(-n3c(=O)n(C[C@H]4CC[C@H](NC(=O)c5cc(Cl)cnc5C)CC4)c4ccccc43)cc2c1C [Example 295, 5-chloro-N-((1r,4r)-4-((3-(2-ethyl-3-methyl-2H-pyrazolo[3,4-b]pyridin-5-yl)-2-oxo-2,3-dihydro-1H-benzo[d]imidazol-1-yl)methyl)cyclohexyl)-2-methylnicotinamide]
O=C(N[C@H]1CC[C@H](Cn2c(=O)n(-c3ccc(-c4ncc[nH]4)nc3)c3ccccc32)CC1)c1cc(Cl)cnc1C(F)F [Example 733, N-((1r,4r)-4-((3-(6-(1H-imidazol-2-yl)pyridin-3-yl)-2-oxo-2,3-dihydro-1H-benzo[d]imidazol-1-yl)methyl)cyclohexyl)-5-chloro-2-(difluoromethyl)nicotinamide]
Cc1noc2cc(-n3c(=O)n(C[C@H]4CC[C@H](NC(=O)c5cc(Cl)cnc5C(F)F)CC4)c4cccnc43)ccc12 [Example 583, 5-chloro-2-(difluoromethyl)-N-((1r,4r)-4-((3-(3-methyl-benzo[d]isoxazol-6-yl)-2-oxo-2,3-dihydro-1H-imidazo [4,5-b]pyridin-1-yl)methyl)cyclohexyl)nicotinamide]
Cc1ncc(Cl)cc1C(=O)N[C@H]1CC[C@H](Cn2c(=O)n(-c3cncc(N4CCOCC4)c3)c3ccccc32)CC1 [Example 413, 5-chloro-2-methyl-N-((1r,4r)-4-((3-(5-morpholinopyridin-3-yl)-2-oxo-2,3-dihydro-1H-benzo[d]imidazol-1-yl)methyl)cyclohexyl)nicotinamide]
Cc1ccc(-n2c(=O)n(C[C@H]3CC[C@H](NC(=O)c4cc(Cl)ccc4C(F)(F)F)CC3)c3ccccc32)cn1 [Example 270, 5-chloro-N-((1r,4r)-4-((3-(6-methylpyridin-3-yl)-2-oxo-2,3-dihydro-1H-benzo[d]imidazol-1-yl)methyl)cyclo-hexyl)-2-(trifluoromethyl) benzamide]

From patent US11802120B2, “Fused cyclic urea derivatives as CRHR2 antagonist” (RaQualia Pharma Inc., priority 2018, dated 2023)
